Source: the NIST ThermoML archive (doi:10.1021/je400282h)
± gives the expanded uncertainty stated by the source.

Conditions: Liquid, Ebulliometric method (Recirculating still)

SMILES: CC(=O)O [acetic acid]
- vapor or sublimation pressure (391.03 K): 101.32 ± 0.46 kPa

SMILES: O [water]
- vapor or sublimation pressure (373.15 K): 101.32 ± 0.46 kPa
